Source: patent US7501429B2, “Pyrimidine compounds as anti-ictogenic and/or anti-epileptogenic agents” (Queen's University at Kingston, priority 2001, dated 2009)

test system: pilocarpine induced-seizures; test: Pilocarpine induced-seizure (PIS) model; type: in vivo; settings: uracils in the Pilocarpine model; scale maximum = 4
Description: Pilocarpine Induced-seizure (PIS) Model
All test compounds are normally dissolved in a mixture of saline (NaCl 0.9% by mass) and 10% DMSO. However, in case of solubility problems, the concentration of DMSO may be increased to a maximum of 50%. This biological test is performed following the procedure disclosed in PCT publication WO 98/40055 (Queen's University at Kingston).

Structure (SMILES)	Relative Activity (Maximum = 4)
O=c1cc[nH]c(=O)[nH]1 [Compound P1, 1H-pyrimidine-2,4-dione]	Active - +2
Cc1c[nH]c(=O)[nH]c1=O [Compound P2, 5-methyl-1H-pyrimidine-2,4-dione]	Active - +2
O=c1[nH]cc(CO)c(=O)[nH]1 [Compound P3, 5-hydroxymethyl-1H-pyrimidine-2,4-dione]	Active - +3
O=c1[nH]cc(O)c(=O)[nH]1 [Compound P4, 5-hydroxy-1H-pyrimidine-2,4-dione]	Active - +2
O=c1[nH]cc(Br)c(=O)[nH]1 [Compound P5, 5-bromo-1H-pyrimidine-2,4-dione]	Active - +1
O=c1[nH]cc(I)c(=O)[nH]1 [Compound P6, 5-iodo-1H-pyrimidine-2,4-dione]	Active - +1
Cc1cc(=O)[nH]c(=O)[nH]1 [Compound P7, 6-methyl-1H-pyrimidine-2,4-dione]	Active - +3
Cc1[nH]c(=O)[nH]c(=O)c1Br [Compound P8, 5-bromo-6-methyl-1H-pyrimidine-2,4-dione]	Active - +2
Cc1[nH]c(=O)[nH]c(=O)c1[N+](=O)[O-] [Compound P9, 6-methyl-5-nitro-1H-pyrimidine-2,4-dione]	Active - +2
Nc1c(C(=O)O)[nH]c(=O)[nH]c1=O [Compound P10, 5-amino-2,6-dioxo-1,2,3,6-tetrahydro-pyrimidine-4-carboxylic acid]	Minimally Active
O=C(O)c1cc(=O)[nH]c(=O)[nH]1 [Compound P11, 2,6-dioxo-1,2,3,6-tetrahydro-pyrimidine-4-carboxylic acid]	Active - +2
O=C(O)c1c[nH]c(=O)[nH]c1=O [Compound P12, 2,4-dioxo-1,2,3,4-tetrahydro-pyrimidine-5-carboxylic acid]	Active - +2
Cn1cc([N+](=O)[O-])c(=O)n(C)c1=O [Compound P13, 1,3-dimethyl-5-nitro-1H-pyrimidine-2,4-dione]	Minimally Active
Cc1[nH]c(=O)[nH]c(=O)c1C [Compound P14, 5,6-dimethyl-1H-pyrimidine-2,4-dione]	Active - +2
CCCCc1cc2c[nH]c(=O)nc2o1 [Compound P17, 6-butyl-3H-furo[2,3-d]pyrimidin-2-one]	Active - +1
CCCCC#Cc1c[nH]c(=O)[nH]c1=O [Compound P18, 5-hex-1-ynyl-1H-pyrimidine-2,4-dione]	Active - +1
Cc1cn(C2CC(O)C(CO)O2)c(=O)[nH]c1=O (stereo not drawn) [Compound P19, 1-(4-hydroxy-5-hydroxymethyl-tetrahydro-furan-2-yl)-5-methyl-1H-pyrimidine-2,4-dione]	Minimally Active
CCC(C)n1cc(Br)c(=O)[nH]c1=O (stereo not drawn) [Compound P20, 5-bromo-1-sec-butyl-1H-pyrimidine-2,4-dione]	Active - +1

Structure (SMILES)	Relative Activity (Maximum = 4)
CC(C)n1cc(Br)c(=O)[nH]c1=O [Compound P21, 5-bromo-1-isopropyl-1H-pyrimidine-2,4-dione]	Active - +1
O=c1[nH]c(=O)n(Cc2ccccc2)cc1Br [Compound P22, 1-benzyl-5-bromo-1H-pyrimidine-2,4-dione]	Active - +1
O=c1[nH]c(=O)n(CC2CCCCC2)cc1Br [Compound P23, 5-bromo-1-cyclohexylmethyl-1H-pyrimidine-2,4-dione]	Minimally Active
O=c1c(Br)cn(CC2CCCCC2)c(=O)n1CC1CCCCC1 [Compound P24, 5-bromo-1,3-bis-cyclohexylmethyl-1H-pyrimidine-2,4-dione]	Minimally Active
O=c1c(Br)cn(Cc2ccc([N+](=O)[O-])cc2)c(=O)n1Cc1ccc([N+](=O)[O-])cc1 [Compound P25, 5-bromo-1,3-bis-(4-nitro-benzyl)-1H-pyrimidine-2,4-dione]	Active - +2
O=c1ccn(Cc2ccccc2)c(=O)[nH]1 [Compound P26, 1-benzyl-1H-pyrimidine-2,4-dione]	Active - +2
Cc1cc(=O)[nH]c(=O)n1Cc1ccccc1 [Compound P27, 1-benzyl-6-methyl-1H-pyrimidine-2,4-dione]	Active - +2
CSCc1c[nH]c(=O)[nH]c1=O [Compound P31, 5-methylsulfanylmethyl-1H-pyrimidine-2,4-dione]	Minimally Active
O=c1[nH]c(=O)n(Cc2ccccc2)cc1I [Compound P32, 1-benzyl-5-iodo-1H-pyrimidine-2,4-dione]	Active +1
Cc1cc(=O)n(Cc2ccc([N+](=O)[O-])cc2)c(=O)n1Cc1ccc([N+](=O)[O-])cc1 [Compound P33, 6-methyl-1,3-bis-(4-nitro-benzyl)-1H-pyrimidine-2,4-dione]	Active +2
Cn1ccc(=O)[nH]c1=O [Compound P34, 1-methyl-1H-pyrimidine-2,4-dione]	Minimally Active
Cn1ccc(=O)n(C)c1=O [Compound P35, 1,3-dimethyl-1H-pyrimidine-2,4-dione]	Active +3
CC(C)n1ccc(=O)n(C(C)C)c1=O [Compound P36, 1,3-diisopropyl-1H-pyrimidine-2,4-dione]	Active +2
O=c1ccn(CCCO)c(=O)n1CCCO [Compound P37, 1,3-bis-(3-hydroxy-propyl)-1H-pyrimidine-2,4-dione]	Active +2
NN1C(=O)CCN(Cc2ccccc2)C1=O [Compound P38, 3-amino-1-benzyl-dihydro-pyrimidine-2,4-dione]	Active +2
CC1CC(=O)N(N)C(=O)N1Cc1ccccc1 (stereo not drawn) [Compound P39, 3-amino-1-benzyl-6-methyl-dihydro-pyrimidine-2,4-dione]	Active +3
NC(=O)c1cnn(-c2cccc(N)c2)c1 [Compound P42, 1-(3-amino-phenyl)-1H-pyrazole-4-carboxylic acid amide]	Active +2
O=c1c(Cc2cn(Cc3ccccc3)c(=O)n(Cc3ccccc3)c2=O)cn(Cc2ccccc2)c(=O)n1Cc1ccccc1 [Compound P43]	Active +3
